Source: patent US7449582B2, “Compounds and compositions as protein kinase inhibitors” (IRM LLC, priority 2003, dated 2008)

Tests used:
TrkB = target: T1, TrkB (Homo sapiens, UniProt Q16620); assay: Upstate KinaseProfiler radio-enzymatic filter binding assay, TrkB; assay type: biochemical; settings: at a concentration of 10 μM; read-out: percentage inhibition
T1 construct: purchased Upstate
Experimental: (§1) Compounds of the invention are assessed for their ability to inhibit individual members of a panel of kinases (a partial, non-limiting list of kinases includes: Abl, BCR-Abl, CSK, JNK1, JNK2, PDGF-R, p38, p70S6K, TGFβ, SRC, EGFR, c-Kit, trkB, FGFR3, Fes, Lck, Syk, RAF, MKK4, MKK6 and SAPK2μ). The compounds are tested in duplicates at a final concentration of 10 μM following this generic protocol. Note that the kinase buffer composition and the substrates vary for the different kinases included in the “Upstate KinaseProfiler™” panel. Kinase buffer (2.5 μL, 10×—containing MnCl2 when required), active kinase (0.001-0.01 Units; 2.5 μL), specific or Poly(Glu4-Tyr) peptide (5-500 μM or 0.01 mg/ml) in kinase buffer and […] are mixed in an eppendorf on ice. […] The assay squares are transferred to a scintillation vial, 5 ml scintillation cocktail are added and ^32P incorporation (cpm) to the peptide substrate is quantified with a Beckman scintillation counter. Percentage inhibition is calculated for each reaction.

wild type Bcr-abl = target: T2, wild type Bcr-abl (Homo sapiens, UniProt P00519); assay: Proliferation of Ba/F3 cells expressing wild type Bcr-abl; assay type: cell-based
T2 construct: BCR (N-terminal fusion partner); expressed in transfected cells; host or cells: Ba/F3 (murine pro-B cells); the other entry of the earlier key: BCR (P11274, Breakpoint cluster region protein)
Experimental: (§2) 32D-p210 cells are plated into 96 well TC plates at a density of 15,000 cells per well. 50 μL of two fold serial dilutions of the test compound (Cmax is 40 μM) are added to each well (STI571 is included as a positive control). After incubating the cells for 48 hours at 37° C., 5% CO2, 15 μL of MTT (Promega) is added to each well and the cells are incubated for an additional 5 hours. The optical density at 570 nm is quantified spectrophotometrically and IC50 values, the concentration of compound required for 50% inhibition, determined from a dose response curve.
(§3) Compounds of the invention are tested for their antiproliferative effect on Ba/F3 cells expressing either wild type or the mutant forms of BCR-Abl (G250E, E255V, T315I, F317L, M351T) that confers resistance or diminished sensitivity to ST1571. The antiproliferative effect of these compounds on the mutant-BCR-Abl expressing cells and on the non transformed cells were tested at 10, 3.3, 1.1 and 0.37 μM as described above (in media lacking IL3). The IC50 values of the compounds lacking toxicity on the untransformed cells were determined from the dose response curves obtained as describe above.

FGFR3 [1] = target: T3, FGFR3 (Homo sapiens, UniProt P22607); assay: Upstate KinaseProfiler radio-enzymatic filter binding assay, FGFR3; assay type: biochemical; settings: at a concentration of 10 μM; read-out: percentage inhibition
T3 construct: purchased Upstate
T3 sequence (P22607 23-806): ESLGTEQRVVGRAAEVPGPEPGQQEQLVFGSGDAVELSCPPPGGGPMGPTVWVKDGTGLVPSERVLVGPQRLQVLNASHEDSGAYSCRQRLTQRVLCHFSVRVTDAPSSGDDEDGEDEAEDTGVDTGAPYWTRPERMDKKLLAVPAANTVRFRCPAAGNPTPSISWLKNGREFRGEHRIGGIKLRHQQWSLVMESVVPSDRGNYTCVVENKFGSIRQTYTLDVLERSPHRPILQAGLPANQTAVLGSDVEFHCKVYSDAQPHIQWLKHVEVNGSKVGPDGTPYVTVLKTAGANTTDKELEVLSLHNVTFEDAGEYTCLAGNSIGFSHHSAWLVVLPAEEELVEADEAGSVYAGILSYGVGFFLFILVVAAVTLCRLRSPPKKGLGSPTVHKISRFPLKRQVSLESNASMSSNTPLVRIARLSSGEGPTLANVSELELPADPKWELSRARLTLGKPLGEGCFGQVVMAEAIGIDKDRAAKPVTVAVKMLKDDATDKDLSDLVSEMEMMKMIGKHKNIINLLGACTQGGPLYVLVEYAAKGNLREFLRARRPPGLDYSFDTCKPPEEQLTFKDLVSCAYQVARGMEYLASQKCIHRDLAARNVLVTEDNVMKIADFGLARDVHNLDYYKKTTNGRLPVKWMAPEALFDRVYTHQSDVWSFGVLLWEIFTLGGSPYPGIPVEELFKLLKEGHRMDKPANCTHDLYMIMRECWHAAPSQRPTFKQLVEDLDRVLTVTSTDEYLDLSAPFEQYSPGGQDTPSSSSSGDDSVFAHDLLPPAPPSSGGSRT
Experimental: as §1

Ba/F3-TEL-FGFR3 cells = assay: FGFR3 (Cellular Assay); assay type: cell-based
Experimental: Compounds of the invention are tested for their ability to inhibit transformed Ba/F3-TEL-FGFR3 cells proliferation, which is depended on FGFR3 cellular kinase activity. Ba/F3-TEL-FGFR3 are cultured up to 800,000 cells/mL in suspension, with RPMI 1640 supplemented with 10% fetal bovine serum as the culture medium. Cells are dispensed into 384-well format plate at 5000 cell/well in 50 μL culture medium. Compounds of the invention are dissolved and diluted in dimethylsufoxide (DMSO). Twelve points 1:3 serial dilutions are made into DMSO to create concentrations gradient ranging typically from 10 mM to 0.05 μM. Cells are added with 50 nL of diluted compounds and incubated for 48 hours in cell culture incubator. AlamarBlue® (TREK Diagnostic Systems), which can be used to monitor the reducing environment created by proliferating cells, are added to cells at final concentration of 10%. After additional four hours of incubation in a 37° C. cell culture incubator, fluorescence signals from reduced AlamarBlue® (Excitation at 530 nm, Emission at 580 nm) are quantified on Analyst GT (Molecular Devices Corp.). IC50 values are calculated by linear regression analysis of the percentage inhibition of each compound at 12 concentrations.

Lck = target: T4, Lck (Homo sapiens, UniProt P06239); assay: Upstate KinaseProfiler radio-enzymatic filter binding assay, Lck; assay type: biochemical; settings: at a concentration of 10 μM; read-out: percentage inhibition
T4 construct: purchased Upstate
T4 sequence (P06239 whole entry): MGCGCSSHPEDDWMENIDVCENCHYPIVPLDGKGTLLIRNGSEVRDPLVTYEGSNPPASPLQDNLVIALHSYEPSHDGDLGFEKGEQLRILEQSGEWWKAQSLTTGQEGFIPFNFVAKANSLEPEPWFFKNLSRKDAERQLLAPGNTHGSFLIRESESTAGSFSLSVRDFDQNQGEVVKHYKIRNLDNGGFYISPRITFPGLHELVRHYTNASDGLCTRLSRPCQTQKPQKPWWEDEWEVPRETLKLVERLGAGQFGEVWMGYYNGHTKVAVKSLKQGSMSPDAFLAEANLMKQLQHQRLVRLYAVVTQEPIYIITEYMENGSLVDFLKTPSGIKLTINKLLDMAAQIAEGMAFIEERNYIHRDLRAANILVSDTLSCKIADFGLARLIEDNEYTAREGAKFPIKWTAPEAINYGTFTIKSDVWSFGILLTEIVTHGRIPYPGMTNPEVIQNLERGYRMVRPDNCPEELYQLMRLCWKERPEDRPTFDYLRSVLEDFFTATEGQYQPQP
Experimental: as §1

E255V Bcr-abl = target: T5, E255V Bcr-abl (Homo sapiens, UniProt P00519, E255V); assay: Proliferation of Ba/F3 cells expressing E255V mutant Bcr-abl; assay type: cell-based
T5 construct: BCR (N-terminal fusion partner); expressed in transfected cells; host or cells: Ba/F3 (murine pro-B cells); the other entry of the earlier key: BCR (P11274, Breakpoint cluster region protein)
Experimental: as §2, §3

MKK6 = target: T6, MKK6 (Homo sapiens, UniProt P52564); assay: Upstate KinaseProfiler radio-enzymatic filter binding assay, MKK6; assay type: biochemical; settings: at a concentration of 10 μM; read-out: percentage inhibition
T6 construct: purchased Upstate
Experimental: as §1

c-Raf [2] = target: c-Raf (Homo sapiens, UniProt P04049); assay: c-Raf enzyme assay; assay type: biochemical
Sequence of c-Raf (Homo sapiens, UniProt P04049) (P04049 whole entry, species assumed): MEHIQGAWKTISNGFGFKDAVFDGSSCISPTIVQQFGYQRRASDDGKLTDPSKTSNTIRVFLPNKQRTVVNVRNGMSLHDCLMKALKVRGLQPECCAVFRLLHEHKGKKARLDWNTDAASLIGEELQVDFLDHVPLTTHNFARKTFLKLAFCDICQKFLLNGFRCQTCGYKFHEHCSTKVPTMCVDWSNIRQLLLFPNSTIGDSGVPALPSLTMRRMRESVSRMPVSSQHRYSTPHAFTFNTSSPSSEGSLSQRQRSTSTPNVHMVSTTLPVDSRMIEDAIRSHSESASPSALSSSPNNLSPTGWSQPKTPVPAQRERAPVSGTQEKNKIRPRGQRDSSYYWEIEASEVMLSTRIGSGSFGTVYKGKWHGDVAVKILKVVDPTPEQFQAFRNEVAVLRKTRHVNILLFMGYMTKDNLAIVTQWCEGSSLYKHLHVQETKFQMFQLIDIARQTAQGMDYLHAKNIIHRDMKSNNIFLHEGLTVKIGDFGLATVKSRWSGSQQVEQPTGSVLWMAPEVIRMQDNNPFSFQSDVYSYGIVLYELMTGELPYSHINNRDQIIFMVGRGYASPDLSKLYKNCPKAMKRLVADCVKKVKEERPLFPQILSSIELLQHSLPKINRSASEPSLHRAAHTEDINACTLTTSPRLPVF

CSK = target: T7, CSK (Homo sapiens, UniProt P41240); assay: Upstate KinaseProfiler radio-enzymatic filter binding assay, CSK; assay type: biochemical; settings: at a concentration of 10 μM; read-out: percentage inhibition
T7 construct: purchased Upstate
Experimental: as §1

SAPK2α = target: T8, SAPK2α (Homo sapiens, UniProt Q16539); assay: Upstate KinaseProfiler radio-enzymatic filter binding assay, SAPK2α; assay type: biochemical; settings: at a concentration of 10 μM; read-out: percentage inhibition
T8 construct: purchased Upstate
Experimental: as §1

T315I Bcr-abl = target: T9, T315I Bcr-abl (Homo sapiens, UniProt P00519, T315I); assay: Proliferation of Ba/F3 cells expressing T315I mutant Bcr-abl; assay type: cell-based
T9 construct: BCR (N-terminal fusion partner); expressed in transfected cells; host or cells: Ba/F3 (murine pro-B cells); the other entry of the earlier key: BCR (P11274, Breakpoint cluster region protein)
Experimental: as §2, §3

G250E Bcr-abl = target: T10, G250E Bcr-abl (Homo sapiens, UniProt P00519, G250E); assay: Proliferation of Ba/F3 cells expressing G250E mutant Bcr-abl; assay type: cell-based
T10 construct: BCR (N-terminal fusion partner); expressed in transfected cells; host or cells: Ba/F3 (murine pro-B cells); the other entry of the earlier key: BCR (P11274, Breakpoint cluster region protein)
Experimental: as §2, §3

JNK2 α2 = target: T11, JNK2 α2 (Homo sapiens, UniProt P45984); assay: Upstate KinaseProfiler radio-enzymatic filter binding assay, JNK2α2; assay type: biochemical; settings: at a concentration of 10 μM; read-out: percentage inhibition
T11 construct: purchased Upstate
T11 sequence (P45984 whole entry): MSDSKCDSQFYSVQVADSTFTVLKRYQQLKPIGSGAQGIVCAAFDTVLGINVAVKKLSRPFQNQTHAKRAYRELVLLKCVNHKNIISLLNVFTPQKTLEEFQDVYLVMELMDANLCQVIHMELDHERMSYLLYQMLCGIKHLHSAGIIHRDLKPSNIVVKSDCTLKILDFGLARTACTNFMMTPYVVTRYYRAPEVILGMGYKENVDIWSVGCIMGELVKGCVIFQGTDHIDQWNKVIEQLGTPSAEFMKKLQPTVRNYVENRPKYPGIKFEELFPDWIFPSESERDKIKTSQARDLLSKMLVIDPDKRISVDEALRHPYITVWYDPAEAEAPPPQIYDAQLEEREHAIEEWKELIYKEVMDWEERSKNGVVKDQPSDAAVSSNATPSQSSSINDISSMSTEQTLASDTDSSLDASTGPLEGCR
Experimental: as §1

MKK4 = target: T12, MKK4 (Mus musculus, UniProt P47809); assay: Upstate KinaseProfiler radio-enzymatic filter binding assay, MKK4; assay type: biochemical; settings: at a concentration of 10 μM; read-out: percentage inhibition
T12 construct: purchased Upstate
T12 sequence (P47809 2-397 limits assumed): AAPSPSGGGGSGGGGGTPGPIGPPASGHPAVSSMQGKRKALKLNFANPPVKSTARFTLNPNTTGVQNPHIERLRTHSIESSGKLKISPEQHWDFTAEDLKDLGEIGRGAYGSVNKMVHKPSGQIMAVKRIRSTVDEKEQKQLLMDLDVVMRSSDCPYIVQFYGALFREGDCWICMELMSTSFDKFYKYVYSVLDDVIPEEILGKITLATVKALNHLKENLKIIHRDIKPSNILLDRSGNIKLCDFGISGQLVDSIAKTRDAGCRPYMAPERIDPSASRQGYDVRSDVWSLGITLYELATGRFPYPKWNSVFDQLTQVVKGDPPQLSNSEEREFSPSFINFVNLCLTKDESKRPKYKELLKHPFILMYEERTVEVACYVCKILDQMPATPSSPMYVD
Experimental: as §1

Bmx = target: T13, Bmx (Homo sapiens, UniProt P51813); assay: Upstate KinaseProfiler radio-enzymatic filter binding assay, Bmx; assay type: biochemical; settings: at a concentration of 10 μM; read-out: percentage inhibition
T13 construct: purchased Upstate
T13 sequence (P51813 whole entry): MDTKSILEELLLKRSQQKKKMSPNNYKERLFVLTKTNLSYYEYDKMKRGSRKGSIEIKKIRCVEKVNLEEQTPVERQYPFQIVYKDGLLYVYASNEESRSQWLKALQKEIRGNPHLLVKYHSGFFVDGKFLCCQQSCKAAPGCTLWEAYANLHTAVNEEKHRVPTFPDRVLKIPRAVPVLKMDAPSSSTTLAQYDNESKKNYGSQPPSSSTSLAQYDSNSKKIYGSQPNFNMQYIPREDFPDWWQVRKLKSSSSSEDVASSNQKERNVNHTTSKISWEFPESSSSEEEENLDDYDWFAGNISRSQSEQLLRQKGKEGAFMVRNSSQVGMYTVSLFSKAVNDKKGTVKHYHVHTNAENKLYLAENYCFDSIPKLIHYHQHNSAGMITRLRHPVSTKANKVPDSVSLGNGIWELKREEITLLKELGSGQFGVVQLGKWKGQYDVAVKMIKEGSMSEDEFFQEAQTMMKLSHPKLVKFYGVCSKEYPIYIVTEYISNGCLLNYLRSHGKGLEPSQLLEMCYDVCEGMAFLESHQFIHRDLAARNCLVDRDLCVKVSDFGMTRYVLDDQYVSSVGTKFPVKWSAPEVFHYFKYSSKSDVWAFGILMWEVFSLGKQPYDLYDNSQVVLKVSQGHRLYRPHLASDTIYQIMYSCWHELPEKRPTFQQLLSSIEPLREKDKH
Experimental: as §1

M351T Bcr-abl = target: T14, M351T Bcr-abl (Homo sapiens, UniProt P00519, M351T); assay: Proliferation of Ba/F3 cells expressing M351T mutant Bcr-abl; assay type: cell-based
T14 construct: BCR (N-terminal fusion partner); expressed in transfected cells; host or cells: Ba/F3 (murine pro-B cells); the other entry of the earlier key: BCR (P11274, Breakpoint cluster region protein)
Experimental: as §2, §3

F317L Bcr-abl = target: T15, F317L Bcr-abl (Homo sapiens, UniProt P00519, F317L); assay: Proliferation of Ba/F3 cells expressing F317L mutant Bcr-abl; assay type: cell-based
T15 construct: BCR (N-terminal fusion partner); expressed in transfected cells; host or cells: Ba/F3 (murine pro-B cells); the other entry of the earlier key: BCR (P11274, Breakpoint cluster region protein)
Experimental: as §2, §3

c-Raf [3] = target: T16, c-Raf (Homo sapiens, UniProt P04049, Y340D/Y341D); assay: Upstate KinaseProfiler radio-enzymatic filter binding assay, c-RAF; assay type: biochemical; settings: at a concentration of 10 μM; read-out: percentage inhibition
T16 construct: purchased Upstate
T16 sequence (P04049 306-648 Y340D/Y341D limits assumed): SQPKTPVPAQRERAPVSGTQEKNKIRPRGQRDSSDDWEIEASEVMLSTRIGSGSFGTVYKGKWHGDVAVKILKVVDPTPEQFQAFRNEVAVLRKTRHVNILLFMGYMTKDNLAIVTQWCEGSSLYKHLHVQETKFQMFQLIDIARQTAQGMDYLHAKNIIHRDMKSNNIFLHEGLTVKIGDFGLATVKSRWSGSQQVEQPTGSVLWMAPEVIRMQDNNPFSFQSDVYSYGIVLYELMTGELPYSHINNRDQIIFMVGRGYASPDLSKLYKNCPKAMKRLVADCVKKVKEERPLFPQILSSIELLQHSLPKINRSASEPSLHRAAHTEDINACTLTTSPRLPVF
Experimental: as §1

SAPK2β = target: T17, SAPK2β (Homo sapiens, UniProt Q15759); assay: Upstate KinaseProfiler radio-enzymatic filter binding assay, SAPK2β; assay type: biochemical; settings: at a concentration of 10 μM; read-out: percentage inhibition
T17 construct: purchased Upstate
Experimental: as §1

p70S6K = target: T18, p70S6K (Homo sapiens, UniProt P23443); assay: Upstate KinaseProfiler radio-enzymatic filter binding assay, p70S6K; assay type: biochemical; settings: at a concentration of 10 μM; read-out: percentage inhibition
T18 construct: purchased Upstate
Experimental: as §1

JNK1α1 = target: T19, JNK1α1 (Homo sapiens, UniProt P45983); assay: Upstate KinaseProfiler radio-enzymatic filter binding assay, JNK1α1; assay type: biochemical; settings: at a concentration of 10 μM; read-out: percentage inhibition
T19 construct: purchased Upstate
T19 sequence (P45983 1-384 isoform P45983-2): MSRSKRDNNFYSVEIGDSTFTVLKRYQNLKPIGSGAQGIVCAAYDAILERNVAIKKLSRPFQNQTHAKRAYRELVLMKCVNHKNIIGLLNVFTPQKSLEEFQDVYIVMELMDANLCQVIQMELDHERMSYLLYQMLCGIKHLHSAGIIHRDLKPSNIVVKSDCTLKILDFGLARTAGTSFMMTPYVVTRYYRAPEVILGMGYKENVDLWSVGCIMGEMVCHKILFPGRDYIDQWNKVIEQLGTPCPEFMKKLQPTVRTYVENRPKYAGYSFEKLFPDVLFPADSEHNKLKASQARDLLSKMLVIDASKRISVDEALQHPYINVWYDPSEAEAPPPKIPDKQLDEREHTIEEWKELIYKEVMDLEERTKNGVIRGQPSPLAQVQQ
Experimental: as §1

b-Raf = b-Raf (Homo sapiens, UniProt P15056); assay: b-Raf enzyme assay; assay type: biochemical
Experimental: Compounds of the invention are tested for their ability to inhibit the activity of b-Raf. The assay is carried out in 384-well MaxiSorp plates (NUNC) with black walls and clear bottom. The substrate, IκBα is diluted in DPBS (1:750) and 15 μl is added to each well. The plates are incubated at 4° C. overnight and washed 3 times with TBST (25 mM Tris, pH 8.0, 150 mM NaCl and 0.05% Tween-20) using the EMBLA plate washer. Plates are blocked by Superblock (15 μl/well) for 3 hours at room temperature, washed 3 times with TBST and pat-dried. Assay buffer containing 20 μM ATP (10 μl) is added to each well followed by 100 nl or 500 nl of compound. B-Raf is diluted in the assay buffer (1 μl into 25 μl) and 10 μl of diluted b-Raf is added to each well (0.4 μg/well). The plates are incubated at room temperature for 2.5 hours. The kinase reaction is stopped by washing the plates 6 times with TBST. Phosph-IκBα (Ser32/36) antibody is diluted in Superblock (1:10,000) and 15 μl is added to each well. The plates are incubated at 4° C. overnight and washed 6 times with TBST. AP-conjugated goat-anti-mouse IgG is diluted in Superblock (1:1,500) and 15 μl is added to each well. Plates are incubated at room temperature for 1 hour and washed 6 times with TBST. […] Plates are read on Acquest or Analyst GT using a Fluorescence Intensity Nanxin BBT anion (505 dichroic mirror).

wild-type Abl = assay: Upstate KinaseProfiler radio-enzymatic filter binding assay, Abl; assay type: biochemical; settings: at a concentration of 10 μM
Experimental: as §1

FGFR3 [4] = target: T3, FGFR3; assay: FGFR3 (Enzymatic Assay); assay type: biochemical; settings: FGFR3 enzyme assay
Experimental: Kinase activity assay with purified FGFR3 (Upstate) is carried out in a final volume of 10 μL containing 0.25 μg/mL of enzyme in kinase buffer (30 mM Tris-HCl pH7.5, 15 mM MgCl2, 4.5 mM MnCl2, 15 μM Na3VO4 and 50 μg/mL BSA), and substrates (5 μg/mL biotin-poly-EY(Glu, Tyr) (CIS-US, Inc.) and 3 μM ATP). Two solutions are made: the first solution of 5 μl contains the FGFR3 enzyme in kinase buffer was first dispensed into 384-format ProxiPlate® (Perkin-Elmer) followed by adding 50 nL of compounds dissolved in DMSO, then 5 μl of second solution contains the substrate (poly-EY) and ATP in kinase buffer was added to each wells. The reactions are incubated at room temperature for one hour, stopped by adding 10 μL of HTRF detection mixture, which contains 30 mM Tris-HCl pH7.5, 0.5 M KF, 50 mM ETDA, 0.2 mg/mL BSA, 15 μg/mL streptavidin-XL665 (CIS-US, Inc.) and 150 ng/mL cryptate conjugated anti-phosphotyrosine antibody (CIS-US, Inc.). After one hour of room temperature incubation to allow for streptavidin-biotin interaction, time resolved florescent signals are read on Analyst GT (Molecular Devices Corp.). IC50 values are calculated by linear regression analysis of the percentage inhibition of each compound at 12 concentrations (1:3 dilution from 50 μM to 0.28 nM).

T1 sequence (Q16620 32-822): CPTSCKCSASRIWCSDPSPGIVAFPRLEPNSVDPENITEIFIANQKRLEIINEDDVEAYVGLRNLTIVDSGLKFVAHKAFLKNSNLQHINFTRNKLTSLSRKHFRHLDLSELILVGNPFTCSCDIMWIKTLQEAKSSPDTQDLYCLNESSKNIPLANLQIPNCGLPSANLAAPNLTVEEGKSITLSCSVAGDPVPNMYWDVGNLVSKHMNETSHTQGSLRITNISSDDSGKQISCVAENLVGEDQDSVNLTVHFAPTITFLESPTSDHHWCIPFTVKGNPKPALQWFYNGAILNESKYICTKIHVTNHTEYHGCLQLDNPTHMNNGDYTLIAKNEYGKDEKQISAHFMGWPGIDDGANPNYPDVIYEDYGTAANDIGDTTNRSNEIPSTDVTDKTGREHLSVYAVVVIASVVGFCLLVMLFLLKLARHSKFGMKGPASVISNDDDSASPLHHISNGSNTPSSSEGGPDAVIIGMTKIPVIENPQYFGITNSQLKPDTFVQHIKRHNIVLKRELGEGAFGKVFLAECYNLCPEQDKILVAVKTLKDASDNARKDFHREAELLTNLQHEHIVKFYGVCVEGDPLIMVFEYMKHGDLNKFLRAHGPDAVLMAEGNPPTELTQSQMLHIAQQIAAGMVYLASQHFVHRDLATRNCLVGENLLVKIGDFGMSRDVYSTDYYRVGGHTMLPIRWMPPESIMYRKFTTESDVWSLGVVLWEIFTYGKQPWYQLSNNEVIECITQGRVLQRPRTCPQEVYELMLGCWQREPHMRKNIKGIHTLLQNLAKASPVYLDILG

COc1ccc(Nc2cc3c(cn2)cc(-c2cc(NC(=O)c4cccc(C(F)(F)F)c4)ccc2C)c(=O)n3C)cn1 [Example 8, N-{3-[7-(6-Methoxy-pyridin-3-ylamino)-1-methyl-2-oxo-1,2-dihydro-[1,6]naphthyridin-3-yl]-4-methyl-phenyl}-3-trifluoromethyl-benzamide]
inhibition at 10 µM (TrkB): 97% | IC50 (wild type Bcr-abl): < 0.0005 µM | inhibition at 10 µM (FGFR3 [1]): 96% | IC50 (Ba/F3-TEL-FGFR3 cells): 0.003 µM | inhibition at 10 µM (Lck): 99% | IC50 (E255V Bcr-abl): 0.048 µM | inhibition at 10 µM (MKK6): 97% | IC50 (c-Raf [2]): 0.017 µM | inhibition at 10 µM (CSK): 100% | inhibition at 10 µM (SAPK2α): 95% | IC50 (T315I Bcr-abl): 0.122 µM | IC50 (G250E Bcr-abl): 0.043 µM | inhibition at 10 µM (JNK2 α2): 99% | inhibition at 10 µM (MKK4): 91% | inhibition at 10 µM (Bmx): 100% | IC50 (M351T Bcr-abl): 0.009 µM | IC50 (F317L Bcr-abl): < 0.0005 µM | inhibition at 10 µM (c-Raf [3]): 90% | inhibition at 10 µM (SAPK2β): 98% | inhibition at 10 µM (p70S6K): 86% | inhibition at 10 µM (JNK1α1): 89% | IC50 (b-Raf): 0.5 µM | percentage inhibition (wild-type Abl): 100% | IC50 (FGFR3 [4]): 0.107 µM
